# Measured values as given in article PMC4254195 (European journal of medicinal chemistry, 2014).
# Target: T1, PTP1B (Homo sapiens, UniProt P18031)
# T1 sequence (P18031 1-435): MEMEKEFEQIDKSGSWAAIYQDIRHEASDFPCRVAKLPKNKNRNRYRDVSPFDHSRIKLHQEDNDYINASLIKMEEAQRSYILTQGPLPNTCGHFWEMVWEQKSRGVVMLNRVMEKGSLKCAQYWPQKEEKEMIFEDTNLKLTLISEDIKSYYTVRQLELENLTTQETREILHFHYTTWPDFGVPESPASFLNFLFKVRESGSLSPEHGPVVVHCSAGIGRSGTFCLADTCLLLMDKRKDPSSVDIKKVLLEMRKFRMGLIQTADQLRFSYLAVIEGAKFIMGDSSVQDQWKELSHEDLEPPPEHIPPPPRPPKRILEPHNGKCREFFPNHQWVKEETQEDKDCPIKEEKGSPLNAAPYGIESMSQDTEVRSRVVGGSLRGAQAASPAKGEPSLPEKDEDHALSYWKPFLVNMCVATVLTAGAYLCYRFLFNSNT
# Test: competition with BiPhYn-1 labelling of PTP1B in cells
# Type: cell-based
structure (smiles),measurement,value
"C=CS(=O)(=O)c1ccccc1 [PVSF, phenyl vinyl sulfone]",competition with BiPhYn-1 labelling of PTP1B in cells,exhibited loss of detection of oxidized PTP1B with BiPhYn-1 in the presence of increasing concentrations of PVSF
